# Source: patent publication US20250387388A1, “COMPOUND AS TRK INHIBITOR AND/OR RET INHIBITOR AND USE THEREOF” (Medinno Pharmaceutical Technology (Zhuhai) Co., Ltd., priority 2022, published 2025)
# Read-outs that look alike come from different tables or passages of the source.
# Assays:
# TRKA [1] = molecular target: T1, TRKA (Homo sapiens (Human), UniProt P04629); assay: Inhibitory activity on TRKA (ADP-Glo Kinase Assay)
# TRKB = TRKB (Homo sapiens (Human), UniProt Q16620); assay: Inhibitory activity on TRKB (ADP-Glo Kinase Assay)
# TRKC = TRKC (Homo sapiens (Human), UniProt Q16288); assay: Inhibitory activity on TRKC (ADP-Glo Kinase Assay)
# RET = RET (Homo sapiens (Human), UniProt P07949); assay: Inhibitory activity on RET kinase (HTRF KinEASE-TK); type: biochemical; details: ATP 16 μM
# From the text: 3) Formulate 2.5× kinase with 1× kinase reaction buffer.
# [2] = tested on: allergic rhinitis model in mice; assay: Allergic rhinitis model in mice (OVA); type: in vivo, BALB/C mice; details: for Rhinitis behavioral scoring: 7-day treatment, MDI-1233 10 mg/kg, MDI-1228 3 mg/kg, fluticasone propionate positive control
# Experimental: 42-49 day-old BALB/C mice (Manufacturer: Liaoning Changsheng Biotechnology Co., Ltd., License Number: SCXK(therapeutic)2015-0001), both male and female, were reared under conventional diet, at a temperature of 20 to 26° C., and a humidity of 40% to 70%. Animal grouping and modeling: • 1. Blank control group (no treatment) • 2. Allergic rhinitis group (vehicle treatment: saline containing 0.2% Tween 80) • 3. Allergic rhinitis+compound MDI-1233: 1 mg/kg • 4. Allergic rhinitis+compound MDI-1233: 3 mg/kg • 5. Allergic rhinitis+compound MDI-1233: 10 mg/kg • 6. Allergic rhinitis+compound MDI-1228: 3 mg/kg • 7. Allergic rhinitis+compound MDI-1288: 3 mg/kg • 8. Allergic rhinitis+positive control group (Fluticasone propionate, GlaxoSmithKline, E88D
# The preparation of an AR model in mice involved sensitizing and challenging BALB/c mice with ovalbumin (OVA) to simulate an acute symptoms caused by natural exposure to an allergen. The experimental animals were weighed and separated by gender. Sensitization was performed on days 1, 5, 9, and 12. From day 13, a daily challenge was carried out for 7 consecutive days. After the last challenge, behavior of the mice was observed and scored. The sensitization method involved intraperitoneal injection of an OVA (Sigma, A5503-1G) suspension in 50 μg/ml in which the OVA suspension was prepared by dissolving 500 μg of ovalbumin and 50 mg of AL(OH)3 (CAS 21645-51-2) into 10 ml of normal saline, pH 7.4, with 200 μl injected per mouse. […] On day 12, a single nasal challenge with 10% OVA was performed (PBS was used for the control group). Scoring was conducted according to the table below, using a superposition method to calculate the total score. A total score greater than 5 was considered as successful. Subsequent experiments were conducted after the modeling was deemed successful.
# From day 13, compound administration and challenge were conducted. The compound administration method involved calculating the nasal drops volume according to the mouse's body weight and group requirements, and dissolving the compounds MDI-1233, MDI-1228, MDI-1288 into normal saline containing 0.2% Tween 80 at specific concentrations. The administration was given 30 minutes before the challenge, twice a day. The positive control treatment involved administering nasal drop once (10 μl per side) 30 minutes before OVA nasal stimulation, twice a day. Thirty minutes after the second drug administration, a 10% OVA challenge was conducted, and the amount of nasal discharge, sneezing, and nose scratching were observed and recorded within 30 minutes after each challenge and then scored. The control group was treated with normal saline nasal drops.
# After the rhinitis modeling was completed and the scores were stable, mice of each group were anesthetized and sacrificed after a 20-day scoring. Samples were collected, and peripheral serum was obtained by collecting whole blood, and standing it at room temperature for 1 hour and then centrifuging it to collect the supernatant for ELISA detection; nasal mucosa was taken for HE staining (fixed with 10% formalin); and the supernatant of nasal lavage fluid was taken for ELISA detection.
# (1) HE Staining: The tissue was rinsed with running water for several hours, dehydrated through a series of ethanol solutions (70%, 80%, 90%), and then treated with a mixture of pure alcohol and xylene for 15 minutes, followed by xylene I for 15 minutes and xylene I1 for 15 minutes (until transparent). The tissue was then placed in a mixture of xylene and paraffin at a volume ratio of 1:1 for 15 minutes, followed by immersion with paraffin I and paraffin II each for 50-60 minutes. The tissue was embedded in paraffin and sectioned, and the sections were spreaded, dried, dewaxed and hydrated in distilled water. […]
# [3] = tested on: ovalbumin-induced asthma model in mice; assay: Ovalbumin-induced asthma model in mice; type: in vivo, Balb/c mice; details: nasal administration BID 5 days: MDI-1228 3 mg/kg, MDI-1288 3 mg/kg, MDI-1233 1, 3, 10 mg/kg
# Experimental: After 7 days of acclimatization, animals were randomly grouped based on their body weight. The experiment was divided into 8 groups, with 8 mice in each group, as detailed in the table below.
# • Preparation of Immunogen: Weigh an appropriate amount of OVA, to which an appropriate amount of PBS was added, to achieve a final concentration of 0.1 mg/ml. Then, an equal volume of aluminum adjuvant was added, and the resulting mixture was mixed well, and stored at 4° C., which was prepared before use. • Preparation of Sensitizer (5% OVA): Weigh an appropriate amount of OVA, to which an appropriate amount of PBS was added, to achieve a final concentration of 5%. The resulting mixture was mixed well, and store it at 4° C. for later use, which was prepared before use. • Preparation of Vehicle: Add 200 μl of Tween 80 to 100 ml of saline, and mix it well. […] Mix it well, and store it at 4° C. for later use. […] Mix it well, and store it at 4° C. for later use. […] Mix it well, and store it at 4° C. for later use. The solution was prepared once every three days.
# • Immunization: On days 0, 7, 14, and 21, 200 μl of PBS was injected intraperitoneally for the first group, and 200 μl of (10 μg) OVA/aluminum adjuvant emulsion was injected intraperitoneally for groups 2-8. • Sensitization: From days 28 to 32, the first group of animals was exposed to nebulized PBS in a nebulization box for 20 minutes, and the groups 2-8 were exposed to nebulized 5% OVA in a nebulization box for 20 minutes. And then, they were removed. The sensitization was conducted at 12:30 PM daily. • Administration: The medicine was administrated twice a day at 9 AM and 5 PM via nasal drops. Dexamethasone (Dex) was administered by gavage once a day at 9 AM.
# Serum IgE: Blood was collected from the orbits of animals after carbon dioxide euthanasia, and plasma was separated and stored at −40 degrees for plasma IgE detection.
# Bronchoalveolar Lavage Fluid (BALF) Cell Count: An appropriate amount of foetal bovine serum was weighted and dissolved in PBS to a final concentration of 1%. After orbital blood collection, the trachea was exposed, and a 1 ml syringe needle was replaced with a mouse gavage needle. 0.8 ml of the lavage fluid was aspirated from the syringe and the lungs were lavaged three times. The lavage fluids were collected, and centrifuged at 1000 rpm for 10 minutes, and the supernatant was collected and stored at −40 degrees Celsius. Cells were resuspended with 1 ml of PBS and counted. 100 ul of centrifuged smear was taken and stained with Diff quick and the number of eosinophils, basophils, lymphocytes and macrophages were recorded.
# Bronchoalveolar Lavage Fluid IL-5: Bronchoalveolar lavage fluid was collected to detect IL-5.
# Pathological scoring criteria were: • A) 0 points: No lymphocyte infiltration; • B) 1 point: Trace lymphocyte infiltration; • C) 2 points: Mild lymphocyte infiltration; • D) 3 points: Moderate lymphocyte infiltration; • E) 4 points: Severe lymphocyte infiltration; • After scoring, the results were calculated and analyzed.
# adipocytes = assay: Lipolysis in vitro in adipocytes; type: cell-based, C57BL/6 mouse
# Experimental: Newly extracted neonatal C57BL/6 mouse skin fibroblasts (specific operational steps can be found in the literature: Cell Reports (2023)/doi: 10.1016/j.celrep.2023.112647) were plated and cultured in petri dishes until the cell density reached the highest and contact inhibition. Differentiation medium (DMEM+10% FBS+1× antibiotic; specific formula can be found in the literature: Cell Reports (2023)/doi: 10.1016/j.celrep.2023.112647) was then added to induce the generation of new adipocytes. […] The control group received an equal volume of DMSO. The transformation of adipocytes was observed using a Leica inverted phase contrast microscope.
# [4] = tested on: atopic dermatitis/eczema in mice; assay: Atopic dermatitis/eczema model in mice (dust mite extract + SEB); type: in vivo; details: for Number of Scratch Incidents (±SE) / Scratch Duration (±SE) / Skin Erythema, Hemorrhage, Eruption, and Desquamation (Lesion Scoring) (Mean ± SE): Tofacitinib 10 mg/kg
# TRKA [5] = molecular target: T1, TRKA; details: reported; cited from earlier work
# JAK3 = JAK3 (Homo sapiens (Human), UniProt P52333); details: reported; cited from earlier work
# [6] = nasal drops twice a day, MDI-1288 3 mg/kg
# [7] = vs. vehicle (model) group, dexamethasone 1 mg/kg gavage QD
# T1 sequence (P04629 33-796 limits assumed): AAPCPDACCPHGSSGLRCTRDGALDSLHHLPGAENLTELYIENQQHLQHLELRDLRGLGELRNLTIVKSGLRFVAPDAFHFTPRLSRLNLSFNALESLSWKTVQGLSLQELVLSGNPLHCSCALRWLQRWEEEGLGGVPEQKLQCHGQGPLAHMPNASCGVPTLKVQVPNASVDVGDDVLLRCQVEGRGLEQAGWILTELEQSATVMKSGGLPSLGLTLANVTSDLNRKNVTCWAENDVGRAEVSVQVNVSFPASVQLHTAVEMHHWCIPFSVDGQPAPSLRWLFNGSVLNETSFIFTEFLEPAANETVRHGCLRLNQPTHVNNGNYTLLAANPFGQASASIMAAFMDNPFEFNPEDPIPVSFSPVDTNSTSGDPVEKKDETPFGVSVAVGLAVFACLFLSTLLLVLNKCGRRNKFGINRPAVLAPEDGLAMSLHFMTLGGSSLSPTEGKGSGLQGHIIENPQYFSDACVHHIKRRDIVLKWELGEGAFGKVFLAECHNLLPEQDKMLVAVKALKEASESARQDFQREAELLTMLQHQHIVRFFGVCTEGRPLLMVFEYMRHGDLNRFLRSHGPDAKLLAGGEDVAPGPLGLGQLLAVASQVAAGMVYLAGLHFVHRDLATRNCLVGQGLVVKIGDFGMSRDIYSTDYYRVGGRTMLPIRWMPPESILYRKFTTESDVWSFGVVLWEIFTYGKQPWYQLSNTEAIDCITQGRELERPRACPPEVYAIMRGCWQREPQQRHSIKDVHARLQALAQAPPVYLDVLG
# TRKC, sequence (Q16288 32-839): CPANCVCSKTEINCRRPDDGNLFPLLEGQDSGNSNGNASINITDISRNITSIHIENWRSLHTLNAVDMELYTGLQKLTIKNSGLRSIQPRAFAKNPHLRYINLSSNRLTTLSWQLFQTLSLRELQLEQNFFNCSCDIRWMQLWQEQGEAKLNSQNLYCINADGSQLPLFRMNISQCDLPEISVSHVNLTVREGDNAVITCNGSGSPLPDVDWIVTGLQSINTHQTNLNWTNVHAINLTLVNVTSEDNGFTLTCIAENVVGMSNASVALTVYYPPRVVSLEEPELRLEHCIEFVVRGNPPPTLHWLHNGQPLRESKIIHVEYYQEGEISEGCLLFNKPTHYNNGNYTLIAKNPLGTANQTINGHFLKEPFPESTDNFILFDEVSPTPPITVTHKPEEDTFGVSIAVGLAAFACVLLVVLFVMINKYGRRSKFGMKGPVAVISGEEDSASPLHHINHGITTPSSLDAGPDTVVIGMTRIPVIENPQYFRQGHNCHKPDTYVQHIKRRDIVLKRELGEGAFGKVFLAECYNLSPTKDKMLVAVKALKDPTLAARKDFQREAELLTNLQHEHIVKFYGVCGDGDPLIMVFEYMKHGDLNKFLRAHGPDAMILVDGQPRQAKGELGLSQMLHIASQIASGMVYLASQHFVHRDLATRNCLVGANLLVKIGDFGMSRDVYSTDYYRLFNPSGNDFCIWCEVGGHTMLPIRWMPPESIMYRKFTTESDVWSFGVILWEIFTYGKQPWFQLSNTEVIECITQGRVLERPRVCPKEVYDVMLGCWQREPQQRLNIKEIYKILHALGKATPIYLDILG
# TRKB, sequence (Q16620 32-822): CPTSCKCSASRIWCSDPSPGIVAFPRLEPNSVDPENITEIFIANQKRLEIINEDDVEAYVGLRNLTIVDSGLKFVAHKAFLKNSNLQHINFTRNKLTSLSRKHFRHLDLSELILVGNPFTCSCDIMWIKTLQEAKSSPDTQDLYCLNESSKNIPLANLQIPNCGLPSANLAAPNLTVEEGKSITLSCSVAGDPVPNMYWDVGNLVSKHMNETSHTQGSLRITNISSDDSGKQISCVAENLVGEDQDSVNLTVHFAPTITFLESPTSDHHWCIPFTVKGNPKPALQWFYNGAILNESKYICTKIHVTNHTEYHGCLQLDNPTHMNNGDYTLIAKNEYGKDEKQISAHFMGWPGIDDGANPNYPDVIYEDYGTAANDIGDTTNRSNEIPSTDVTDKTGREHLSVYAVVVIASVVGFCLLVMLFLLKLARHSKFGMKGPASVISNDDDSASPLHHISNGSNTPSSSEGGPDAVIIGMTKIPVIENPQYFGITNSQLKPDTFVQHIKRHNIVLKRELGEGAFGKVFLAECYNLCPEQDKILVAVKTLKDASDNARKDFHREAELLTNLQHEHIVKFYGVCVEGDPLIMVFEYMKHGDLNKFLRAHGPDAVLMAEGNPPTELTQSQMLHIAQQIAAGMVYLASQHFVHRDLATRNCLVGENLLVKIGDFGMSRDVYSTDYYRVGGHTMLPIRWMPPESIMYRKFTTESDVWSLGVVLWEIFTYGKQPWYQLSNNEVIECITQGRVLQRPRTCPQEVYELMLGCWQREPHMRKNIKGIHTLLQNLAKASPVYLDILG
# RET, sequence (P07949 29-1114): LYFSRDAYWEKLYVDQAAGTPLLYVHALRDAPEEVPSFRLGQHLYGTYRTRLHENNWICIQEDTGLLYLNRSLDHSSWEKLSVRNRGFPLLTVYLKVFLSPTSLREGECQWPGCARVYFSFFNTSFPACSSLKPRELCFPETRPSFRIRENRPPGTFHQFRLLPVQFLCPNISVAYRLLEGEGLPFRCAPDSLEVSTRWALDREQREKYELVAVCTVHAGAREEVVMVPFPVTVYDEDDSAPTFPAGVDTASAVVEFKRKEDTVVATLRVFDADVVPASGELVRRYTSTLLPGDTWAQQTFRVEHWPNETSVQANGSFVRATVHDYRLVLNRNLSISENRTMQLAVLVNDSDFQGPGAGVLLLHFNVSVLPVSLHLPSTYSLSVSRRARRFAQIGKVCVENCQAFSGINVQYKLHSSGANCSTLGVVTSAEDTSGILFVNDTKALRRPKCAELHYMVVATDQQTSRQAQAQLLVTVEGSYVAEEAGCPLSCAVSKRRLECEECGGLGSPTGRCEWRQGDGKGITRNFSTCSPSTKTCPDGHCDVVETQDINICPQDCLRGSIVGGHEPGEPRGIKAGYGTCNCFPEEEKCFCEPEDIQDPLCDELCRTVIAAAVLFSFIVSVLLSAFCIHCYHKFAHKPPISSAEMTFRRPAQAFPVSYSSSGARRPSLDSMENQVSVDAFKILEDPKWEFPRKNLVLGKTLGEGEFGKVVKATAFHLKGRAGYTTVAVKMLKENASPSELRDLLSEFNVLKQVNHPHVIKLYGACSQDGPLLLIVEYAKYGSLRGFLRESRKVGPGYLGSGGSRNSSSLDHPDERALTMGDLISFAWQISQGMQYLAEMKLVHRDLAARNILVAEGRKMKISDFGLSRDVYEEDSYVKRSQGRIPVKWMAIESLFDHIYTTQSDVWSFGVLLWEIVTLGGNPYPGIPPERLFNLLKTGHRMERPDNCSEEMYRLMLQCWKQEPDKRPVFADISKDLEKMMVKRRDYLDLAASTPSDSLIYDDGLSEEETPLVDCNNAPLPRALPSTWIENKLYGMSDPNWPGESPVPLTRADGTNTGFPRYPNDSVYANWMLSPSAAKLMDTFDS
# JAK3, sequence (P52333 whole entry, species assumed): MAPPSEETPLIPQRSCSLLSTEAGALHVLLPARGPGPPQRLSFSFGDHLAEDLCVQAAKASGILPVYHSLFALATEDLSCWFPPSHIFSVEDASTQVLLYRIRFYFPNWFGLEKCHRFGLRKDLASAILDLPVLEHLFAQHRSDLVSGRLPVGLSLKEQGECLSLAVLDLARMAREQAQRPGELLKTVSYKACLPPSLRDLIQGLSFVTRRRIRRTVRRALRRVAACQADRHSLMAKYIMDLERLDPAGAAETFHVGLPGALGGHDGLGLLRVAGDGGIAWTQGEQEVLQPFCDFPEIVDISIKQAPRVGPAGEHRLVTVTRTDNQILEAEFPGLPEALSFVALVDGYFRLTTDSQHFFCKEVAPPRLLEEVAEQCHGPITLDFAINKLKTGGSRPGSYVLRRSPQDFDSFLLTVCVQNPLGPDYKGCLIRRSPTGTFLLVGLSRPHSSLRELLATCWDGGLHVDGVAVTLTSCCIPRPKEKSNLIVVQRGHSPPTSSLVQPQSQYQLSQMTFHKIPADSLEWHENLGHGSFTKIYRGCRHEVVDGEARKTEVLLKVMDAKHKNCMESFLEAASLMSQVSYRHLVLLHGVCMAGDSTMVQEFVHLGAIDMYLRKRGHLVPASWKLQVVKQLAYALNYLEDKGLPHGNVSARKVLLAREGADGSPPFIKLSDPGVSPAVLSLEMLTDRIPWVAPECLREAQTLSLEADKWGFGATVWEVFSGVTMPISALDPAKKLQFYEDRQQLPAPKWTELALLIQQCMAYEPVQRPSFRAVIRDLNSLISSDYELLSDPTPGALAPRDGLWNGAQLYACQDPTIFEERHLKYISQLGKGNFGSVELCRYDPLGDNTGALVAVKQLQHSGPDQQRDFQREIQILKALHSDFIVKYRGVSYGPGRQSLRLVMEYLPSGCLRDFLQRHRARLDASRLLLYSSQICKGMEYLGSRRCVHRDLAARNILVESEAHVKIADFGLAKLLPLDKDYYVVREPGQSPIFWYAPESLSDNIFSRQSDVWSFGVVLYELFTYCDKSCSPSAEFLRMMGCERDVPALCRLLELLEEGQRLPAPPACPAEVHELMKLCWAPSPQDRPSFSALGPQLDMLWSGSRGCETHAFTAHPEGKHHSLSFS
compound,measurement,setting,value
"CCc1cc(O)c(F)cc1-c1ccc2c(-c3nc4c([nH]3)CN(C(=O)N3CCN(C)CC3)C4)n[nH]c2c1 [MDI-235, (2-(6-(2-ethyl-5-fluoro-4-hydroxyphenyl)-1H-indazol-3-yl)-4,6-dihydropyrrolo[3,4-d]imidazol-5-(1H)-yl)(4-methylpiperazin-1-yl)ketone]",IC50,TRKA [1],0.57 nM
same,IC50,TRKB,1.39 nM
same,IC50,TRKC,0.27 nM
same,IC50,RET,0.1 nM
"CCc1cc(O)c(F)cc1-c1ccc2c(-c3nc4c([nH]3)CN(C(=O)N3CCC(O)CC3)C4)n[nH]c2c1 [MDI-245, (2-(6-(2-ethyl-5-fluoro-4-hydroxyphenyl)-1H-indazol-3-yl)-4,6-dihydropyrrolo[3,4-d]imidazol-5(1H)-yl)(4-hydroxylpiperidin-1-yl)ketone]",IC50,TRKA [1],0.83 nM
same,IC50,TRKB,3.37 nM
same,IC50,TRKC,0.57 nM
same,IC50,RET,0.99 nM
"CCNC(=O)N1Cc2nc(-c3n[nH]c4cc(-c5cc(F)c(O)cc5CC)ccc34)[nH]c2C1 [MDI-247, 2-(6-(2-ethyl-5-fluoro-4-hydroxyphenyl)-1H-indazol-3-yl)-N-ethyl-4,6-dihydropyrrolo[3,4-d]imidazol-5-(1H)-carboxamide]",IC50,"TRKA [1]; read-out: TRKA IC50, ATP 5 μM",10.3 nM
same,IC50,"TRKB; read-out: TRKB IC50, ATP 5 μM",34.2 nM
same,IC50,"TRKC; read-out: TRKC IC50, ATP 5 μM",3.73 nM
same,IC50,RET,8.36 nM
"CCc1cc(O)c(F)cc1-c1ccc2c(-c3nc4c([nH]3)CN(C(=O)C3CC3)C4)n[nH]c2c1 [MDI-1233, cyclopropyl (2-(6-(2-ethyl-5-fluoro-4-hydroxyphenyl)-1H-indazol-3-yl)pyrrolo[3,4-d]imidazol-5(1H,4H,6H)-yl)ketone]",Nasal mucosa pathology (HE staining),[2]; MDI-1233 1 mg/kg and 3 mg/kg nasal drops twice a day,"still accompanied by bleeding, inflammatory cell infiltration, cilia shedding"
same,Nasal mucosa pathology (HE staining),[2]; MDI-1233 10 mg/kg nasal drops twice a day,the nasal mucosal cilia repair effect was significant
same,Rhinitis behavioral scoring,[2]; [6],demonstrated inhibitory effects on the male mouse rhinitis model
same,IC50,"TRKA [1]; read-out: TRKA IC50, ATP 5 μM",12.2 nM
same,IC50,"TRKB; read-out: TRKB IC50, ATP 5 μM",4.16 nM
same,Therapeutic effect on the asthma animal model (lung tissue pathological scoring),[3],good therapeutic effect
same,Bronchoalveolar lavage fluid IL-5 expression level,[3]; [7],could reduce IL-5 expression in all three dosage
same,Inflammatory cell count in bronchoalveolar lavage fluid,[3]; [7],could reduce the Inflammatory Cell Count in all three dosage
same,Lung tissue inflammatory cell infiltration (HE pathology),[3]; [7],could reduce the lung tissue inflammatory cell infiltration in all three dosage
same,Serum IgE expression level,[3]; [7],could reduce IgE expression in all three dosage
same,IC50,"TRKC; read-out: TRKC IC50, ATP 5 μM",5.91 nM
same,IC50,RET,4.21 nM
"C[C@@H]1CCN(C(=O)CC#N)C[C@@H]1N(C)c1ncnc2[nH]ccc12 [Tofacitinib, reference compound]",Lipolysis of differentiated mature adipocytes (phase contrast images),adipocytes; 5 μM,does not promote lipolysis
same,Adipocyte lipolysis in vitro,adipocytes; summary statement,no similar effect
same,Number of Scratch Incidents (±SE),[4]; Day 1,17.75 ± 0.86
same,Scratch Duration (±SE),[4]; Day 1,278.25 ± 50.09
same,"Skin Erythema, Hemorrhage, Eruption, and Desquamation (Lesion Scoring) (Mean ± SE)",[4]; Day 1,4.38 ± 0.46
same,"Skin Erythema, Hemorrhage, Eruption, and Desquamation (Lesion Scoring) (Mean ± SE)",[4]; Day 4,2.63 ± 0.26
same,"Skin Erythema, Hemorrhage, Eruption, and Desquamation (Lesion Scoring) (Mean ± SE)",[4]; Day 7,2.00 ± 0.33
same,Number of Scratch Incidents (±SE),[4]; Day 14,26.7 ± 1.96
same,Scratch Duration (±SE),[4]; Day 14,217.5 ± 47.85
same,"Skin Erythema, Hemorrhage, Eruption, and Desquamation (Lesion Scoring) (Mean ± SE)",[4]; Day 14,1.50 ± 0.19
same,Behavioral analysis (scratch incidents and scratch duration),"[4]; MDI-1228 high-dose (3% gel), tofacitinib 10 mg/kg",did not show significant effects in the behavioral analysis
"CCC(=O)O[C@]1(C(=O)SCF)[C@H](C)C[C@H]2[C@@H]3C[C@H](F)C4=CC(=O)C=C[C@]4(C)[C@@]3(F)[C@@H](O)C[C@@]21C [fluticasone propionate, reference compound]",Nasal mucosa pathology (HE staining),"[2]; MDI-1288 3 mg/kg, fluticasone propionate 10 μl per side, nasal drops twice a day",inhibited the progression of rhinitis and promoted repair of cilia on the nasal mucosa
same,Rhinitis behavioral scoring,[2]; [6],significant effects on inhibiting the rhinitis behavior
Pegcantratinib,Inhibition of TRKA,TRKA [5],capable of inhibiting
same,Inhibition of JAK3,JAK3,capable of inhibiting
